The values below come from patent US20150337276A1, “ENZYME HAVING A NMDA RECEPTOR ANTAGONIST ACTIVITY AND/OR AN ANTICHOLINERGIC ACTIVITY” (priority 2012, published 2015).

Series [1] relates to glutamate intoxicated-cortical neurons. Nature of the series: Neurite network density (NF-H labeling) of glutamate-intoxicated cortical neurons, neuroprotective effect. Type of series: cell-based, rat. The conditions noted are these: intoxicated conditions (glutamate 100 μM, 6 hours). The procedure: Culture conditions: 37° C., 5% CO2
At DIV9, the reference MK-801 (10 μM) was pre-incubated for 30 minutes before glutamate intoxication. Cortical neurons were then incubated for 6 hours with 100 μM of glutamate in presence or not (intoxicated control) of test compounds, the solvent control or the reference. A control without glutamate (non-intoxicated control) was performed in parallel. All experimental conditions were performed in n=3.
All the images were taken under the same conditions.
Raw data were analyzed with Microsoft Excel® software.

In series [2] the test system is NMDA receptor. Nature of the series: NMDA current recording by patch clamp (whole cell, voltage clamp -30 mV) in dorsal root ganglia nociceptor neurons. Type of series: cell-based, rat. The conditions noted are these: for Percentage inhibition of NMDA current: NMDA 250 μM, holding potential -30 mV. The protocol: In one embodiment, the NMDA antagonist activity of the enzyme of the invention is measured by electrophysiology, as shown in Example 3. In one embodiment, said measurement is performed on dorsal root ganglion nociceptor neurons of rats.
The culture conditions of dorsal root ganglia neurons of rats were adapted from Hao and Delmas (J Neurosci. 2010, 6; 30(40)).
NMDA current recordings are performed in neurons of small and medium diameter (nociceptors). Neurons are identified visually and electrophysiologically by measuring their membrane capacitance. […] These neurons express the NMDA receptor in the dorsal root ganglia. Nociceptors are specifically identified by the presence of TTX-resistant Nav1.8 sodium current. Each neuron is tested for the presence upstream of Nav1.8.
NMDA currents are low amplitude currents. Thus, electrical leakage is carefully checked during recording. Infusion or injection of products was performed close to neurons to avoid changes in concentration (dilution effect). Media infusion was extemporaneously daily handled. Products OPN-001 were diluted from stock solutions and stored at 4° C. The data were collected using an Axopatch amplifier 200-B, the Clampex software (PClamp V10, Molecular Device) and stored and analyzed using Clampfit.
In general terms: The patch-clamp technique gives a direct electrical read-out from membranes.

For series [3], the system named is cortical neurons. Nature of the series: Neurite network density (NF-H labeling) of cortical neurons under basal conditions, potential neurotoxic effect. The conditions noted are these: enzymes 2.5 μM for 30 hours, glutamate 100 μM for 6 hours.

For `C[C@]12N[C@H](Cc3ccccc31)c1ccccc12` [MK801], in series [1] (enzymes 2.5 μM pre-incubated 24 hours, MK801 10 μM pre-incubated 30 minutes, n=3), the “Mean NF-H-positive neurite surface” value was 32319 μm^2. The “Protection (%)” value in series [1] (enzymes 2.5 μM, MK801 10 μM) is reported as roughly 96%.

With `[Cl-].[Cl-].[Zn+2]` [ZnCl2], the “efficiency in inhibiting NMDA current, in words” value in series [2] (5 nM, alone) is listed as “not efficient”. Also, the “time for the blocking effect on NMDA current to occur, in words” value in series [2] (50 nM and 500 nM) was “within seconds”. Further, the “inhibition of the NMDA current, trace (FIG. 1B), in words” value in series [2] (50 nM, 200 μl applied alone, NMDA 250 μM for 80 s) is “inhibits all of the NMDA current”. Further, the “Percentage inhibition of NMDA current” value stood at 0% in series [2] (test substance 5 nM); 100% in series [2] (test substance 50 nM, mean of neurons); 100% in series [2] (test substance 500 nM, mean of neurons).

For the compound `N[C@@H](CCC(=O)O)C(=O)O` [Glutamate], the “Mean NF-H-positive neurite surface” value in series [3] (basal conditions (no glutamate), n=3) is given as 21503 μm^2. In addition, the “Intoxication (%)” value in series [3] (basal conditions, normalized to control) stood at 34%.
